This is an account of results in patent US20060166867A1, “Novel conjugates of polysaccharides and uses thereof” (priority 2003, published 2006).

“And” between values parts separate entries of the source, which are not always exact repeats. Equal values may be shown once.

One series has as its system VRE faecium. The settings on record: clinical isolate, Table 7.
A short description of another series: in vitro. It counts as cell-based. Particulars: human; Table 4; tryphan blue exclusion assay for MT2 cells; read-out: Cytotoxicity. In a few lines:
(§1)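 MT2 or cMAGI reporter cells infected with wild-type or resistant HIV-1 at 0.2-0.5 MOI for 4 days at 37° C with varying pAAC concentrations. Infection scored by counting blue-stained cMAGI cells and by microscopic syncytium assessment in MT2; cytotoxicity by trypan blue exclusion, as % dead cells.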

Series [1] has as its system Enterococcus faecalis ATCC 29212. The series can be described thus: microbe, parasite or virus in culture. The settings on record: ATCC29212, read-out: Minimum Inhibitory Concentration.
Another series relates to Enterobacter aerogenes. Description: microbe, parasite or virus in culture. Particulars: Klebsiella aerogenes, read-out: Minimum Inhibitory Concentration.
A further series deals with E. Coli-ESBL negative. The series can be described thus: microbe, parasite or virus in culture. Particulars: Escherichia coli, read-out: Minimum Inhibitory Concentration.
Series [2] deals with A. baumannii-amikacin^r, meropenem^r. The series can be described thus: microbe, parasite or virus in culture. The settings on record: Acinetobacter baumannii, read-out: Minimum Inhibitory Concentration.
The test system of another series is K. pneumoniae B2511. Description: MIC, broth microdilution. It counts as cell-based. Particulars: Klebsiella pneumoniae, Gram negative clinical isolate, read-out: Minimum Inhibitory Concentration. (In broth dilution the organism is exposed to a series of concentrations in liquid medium.)
The test system of series [3] is P. aeruginosa-gentamicin^s, meropenem^s. Description: microbe, parasite or virus in culture. The settings on record: Pseudomonas aeruginosa, read-out: Minimum Inhibitory Concentration.
Series [4] relates to Pseudomonas aeruginosa ATCC 27853. The series can be described thus: microbe, parasite or virus in culture. Particulars: ATCC27853, read-out: Minimum Inhibitory Concentration.
Series [5] concerns Staphylococcus aureus ATCC 24213. The series can be described thus: microbe, parasite or virus in culture. The settings on record: ATCC24213, read-out: Minimum Inhibitory Concentration.
Another series has as its system Serratia marcescens. The series can be described thus: microbe, parasite or virus in culture. The settings on record: read-out: Minimum Inhibitory Concentration.
The subject of series [6] is Klebsiella pneumoniae ATCC 13883. The series can be described thus: microbe, parasite or virus in culture. Particulars: ATCC13883, read-out: Minimum Inhibitory Concentration.
For series [7], the system named is Enterococcus faecalis (clinical isolate). The series can be described thus: microbe, parasite or virus in culture. The settings on record: read-out: Minimum Inhibitory Concentration.
A further series has as its system S. epidermidis MSSE. The series can be described thus: microbe, parasite or virus in culture. The settings on record: Staphylococcus epidermidis, read-out: Minimum Inhibitory Concentration.
Series [8] deals with Enterobacter cloacae W25161. Description: microbe, parasite or virus in culture. The settings on record: W25161, read-out: Minimum Inhibitory Concentration.
A further series deals with S. aureus MSSA. Description: microbe, parasite or virus in culture. The settings on record: Staphylococcus aureus, read-out: Minimum Inhibitory Concentration.
The next series relates to MT2 cells. The series can be described thus: in vitro. Type of series: cell-based. The settings on record: human. The method in brief:
as §1

For a further series, the system named is A. baumannii E11436. Description: MIC, broth microdilution. It counts as cell-based, Acinetobacter baumannii. Particulars: clinical isolate, Table 7. As for the experimental part:
Minimal Inhibition Concentration (MIC) measurements: The Minimal Inhibitory Concentration (MIC) was generally determined by the Broth Microdilution method (based on the protocol described in Clinical and Laboratory Standard Institute (CLSI) NCCLS (2003) M7-A6), as follows:
A stock solution of each of the tested compounds was prepared by diluting the compound to a 2,560 μg/ml concentration with an appropriate solvent. The stock solution was then serially 2-fold diluted in 96-well microdilution trays using Cation-Adjusted Mueller-Hinton Broth (CAMHB) until reaching the desired range of concentrations, whereas each well contained double the final working concentration. Each row further had one growth control well (medium+inoculum only), and one sterility control well (medium+tested compound). Plates were stored at −70° C. until used.
The tested microorganisms were used as fresh overnight cultures on blood agar (for gram-positive organisms) or MacConkey agar (for gram-negatives). A standardized inoculum suspension was prepared by the direct colony suspension method, using sterile saline (equivalent to a 0.5 McFarland standard).
Thus, 50 μl of the inoculum suspension were added to each tested well (except for the sterility control well), and […] was performed during 18-24 hours (depending on the tested microorganism or compound) at 35° C.

As to `CC(=O)N[C@H](CCCNC(=N)N)C(=O)N[C@H](CCCNC(=N)N)C(=O)N[C@H](CCCNC(=N)N)C(=O)N[C@H](CCCNC(=N)N)C(=O)N[C@H](CCCNC(=N)N)C(=O)N[C@H](CCCNC(=N)N)C(=O)N[C@H](CCCNC(=N)N)C(=O)N[C@H](CCCNC(=N)N)C(=O)N[C@H](CCCNC(=N)N)C(=O)O` [Compound 12, D-Arg-9-mer-NHAc], the “Minimum Inhibitory Concentration” value in the series with VRE faecium was over 128.0 mg/L. Besides, the CC50 in the series “in vitro” was 150 µM.

As for `NCC1OC(OC2C(CO)OC(OC3C(O)C(N)CC(N)C3OC3OC(CN)C(O)C(O)C3N)C2O)C(N)C(O)C1O` (stereo not drawn) [Neomycin], the MIC was 128 µg/mL and 141 µM in series [1]; 0.7 µg/mL and 0.77 µM in the series on Enterobacter aerogenes; 1 µg/mL and 1.1 µM in the series on E. Coli-ESBL negative; 106 µM and 96 µg/mL in [2]; 1.5 µg/mL and 1.65 µM in the series on K. pneumoniae B2511; 16 µg/mL and 17.6 µM in series [3]. Besides, the MIC is 128 µg/mL and 141 µM in [4]; 1.5 µg/mL and 1.65 µM in series [5]; 1 µg/mL and 1.1 µM with Serratia marcescens; 0.7 µg/mL and 0.77 µM in [6]; 128 µg/mL and 141 µM in series [7]; 0.5 µg/mL and 0.55 µM with S. epidermidis MSSE. The MIC in series [8] is 3 µg/mL and 3.3 µM; with S. aureus MSSA it was 1 µg/mL and 1.1 µM. The same compound registered a Cytotoxicity in the series on MT2 cells of over 300 µM.

D-Arg-9-mer-neomycin [Compound 14]: the “Minimum Inhibitory Concentration” value in the series with A. baumannii E11436 is 64.0 mg/L.
